2 molecules from paper PMC6348446 (Journal of Medicinal Chemistry, 2018) can be followed below.

One assay has as its target T1, BRD7 (Homo sapiens, UniProt Q9NPI1).
T1 construct: Western blot analysis of BRD9 and BRD7 levels after treatment of HeLa cells; endogenous in cells; host or cells: HeLa
T1 sequence (Q9NPI1 1-651): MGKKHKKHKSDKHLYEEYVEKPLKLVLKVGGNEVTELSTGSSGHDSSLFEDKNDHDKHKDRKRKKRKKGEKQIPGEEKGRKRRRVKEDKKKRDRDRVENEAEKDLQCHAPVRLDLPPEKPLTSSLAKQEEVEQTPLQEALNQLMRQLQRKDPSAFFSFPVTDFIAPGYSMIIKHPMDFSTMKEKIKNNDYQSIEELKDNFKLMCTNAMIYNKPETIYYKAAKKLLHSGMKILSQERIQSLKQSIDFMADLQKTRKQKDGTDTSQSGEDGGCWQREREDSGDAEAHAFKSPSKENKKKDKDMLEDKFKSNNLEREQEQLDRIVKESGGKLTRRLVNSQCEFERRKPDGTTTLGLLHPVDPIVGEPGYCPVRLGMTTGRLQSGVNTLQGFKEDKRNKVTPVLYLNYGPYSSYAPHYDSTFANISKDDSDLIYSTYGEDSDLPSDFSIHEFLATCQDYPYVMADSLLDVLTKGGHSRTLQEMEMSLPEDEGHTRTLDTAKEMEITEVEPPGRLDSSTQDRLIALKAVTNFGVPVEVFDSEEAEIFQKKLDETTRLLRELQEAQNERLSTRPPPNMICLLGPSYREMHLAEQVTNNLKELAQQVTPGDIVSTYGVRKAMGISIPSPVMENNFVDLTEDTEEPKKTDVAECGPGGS
Nature of the assay: Western blot of BRD7 levels in RI-1 cells after compound treatment. Format: cell-based. Conditions: for BRD7 degradation: 4 h. The method, then:
HeLa and Hek293 cells were seeded at either 0.3 × 10^6 or 0.5 × 10^6 cells per well in 6-well plate in 2 mL of medium. At 80% confluency, cells were treated with compounds at the desired concentration, with final DMSO concentration of 0.1% v/v. Cells were incubated at 37 °C and 5% of CO2 for the desired time before harvesting. For protein extraction from adherent cells, cells were washed twice with DPBS (Gibco) and lysed with RIPA buffer (Sigma-Aldrich), supplemented with cOmplete Mini EDTA-free protease inhibitor cocktail (Roche). Insoluble material was removed by centrifugation at 14 000 rpm for 15 min at 4 °C. Supernatant was collected and protein concentration was quantified by Bradford assay (Thermo Scientific no. 23200, mean of two replicates). For RI-1 cells, (1–1.5) × 10^6 cells/mL were seeded in 6-well plate in 2 mL of medium. The day after, cells were treated with compounds at the desired concentration, with final DMSO concentration of 0.1% v/v. Before harvesting, cells were incubated at 37 °C and 5% CO2 for the desired time. Cells were washed twice with DPBS (Gibco) and lysed with RIPA buffer (Sigma-Aldrich), supplemented with cOmplete Mini EDTA-free protease inhibitor cocktail (Roche). Lysates were sonicated (10 s) and centrifuged at 14 000 rpm for 20 min at 4 °C. Supernatant was collected, and protein concentration was quantified by Bradford assay (mean of two replicates). For EOL-1 and A-204 cell line, 20 000 cells were seeded in 300 μL per well in a 24-well plate and incubated at 37 °C overnight. Compounds were added from DMSO stock solution using a digital dispenser D300 (Tecan), normalizing for added DMSO, and cells were incubated at 37 °C for 18 h. Medium was removed, and cells were washed with PBS and lysed in 80 μL of lysis buffer (1% Triton, 350 mM KCl, 10 mM Tris, pH 7,4, phosphatase-protease inhibitor cocktail (Thermo Scientific no. 1861281), 10 mM DTT, Benzonase 0.5 μL/ml (Novagen no. 70746 10KU, 25 U/μL)) for 30 min on ice before insoluble debris was pelleted by centrifugation.
Cells were seeded in 6-well plates with 5 × 10^5 cells per well in 2 mL of complete medium to aim for 80% confluence on the day of treatment. At time zero, ML4924 was added at final concentration of 3 μM with 0.1% v/v of DMSO. DMSO was added to the remaining wells in order to match concentration of vehicle in all wells. […]
Proteins were resolved by SDS–PAGE on NuPage 4–12% Bis-Tris Midi Gel (Invitrogen) and transferred to Amersham Protran 0.45 NC nitrocellulose membrane (GE Healthcare) using wet transfer. […] ImageJ software was used for band quantification, and the last was reported as relative amount as ratio of each protein band relative to the lane’s loading control. […]
On the technique in general: Immunoblotting shows a protein as a band on a membrane.

In another assay the test system is A-204 cells. Nature of the assay: Cell viability/proliferation (cellular ATP, CellTiterGlo) in A-204. It is filed as cell-based. The conditions noted are these: Homo sapiens, A204; A-204 (printed A-402); read-out: EC50 (cytotoxicity, cell viability). The method, then: A-204 cells (1 × 10^3) were seeded per well of 384-well plates. After overnight incubation, compounds were added to the cells at logarithmic dose series using the HP digital dispenser D300 (Tecan), normalizing for added DMSO. 1 day and 8 days after seeding cellular ATP content was measured using CellTiterGlo (Promega). Measurements after 8 days were divided by the measurement after 1 day (i.e., the T0 plate) to derive fold proliferation. Data were analyzed with GraphPad Prism software to obtain EC50 values.
On the technique in general: Cellular ATP, detected with luciferase, serves as a proxy for viable cell number.

SMILES strings stand for the structures.

Broadly, the EC50 is the concentration at which the effect is half-maximal. Turning to `COc1cc(-c2cn(C)c(=O)c3cnccc23)cc(OC)c1CN1CCN(CCCCCOc2cc(-c3scnc3C)ccc2CNC(=O)[C@@H]2C[C@@H](O)CN2C(=O)[C@@H](NC(=O)C2(F)CC2)C(C)(C)C)CC1` [Compound 51, (2S,4R)-N-(2-((5-(4-(2,6-Dimethoxy-4-(2-methyl-1-oxo-1,2-dihydro-2,7-naphthyridin-4-yl)benzyl)piperazin-1-yl)pentyl)oxy)-4-(4-methylthiazol-5-yl)benzyl)-1-((S)-2-(1-fluorocyclopropane-1-carboxamido)-3,3-dimethylbutanoyl)-4-hydroxypyrrolidine-2-carboxamide], the “decrease of BRD7 level” value at BRD7 (100 nM, 30 min) was “more than 50%”. Further, on BRD7 (100 nM), the BRD7 degradation entry is on record as “more than 90%”. For the same molecule, on BRD7 (2 and 8 h), the “concentration window of maximal protein degradation of BRD7” value was in the range of 0.1 to 1 µM. In addition, in the assay with A-204 cells, the EC50 amounted to 40 nM.

As for `COc1cc(-c2cn(C)c(=O)c3cnccc23)cc(OC)c1CN1CCN(CCCCCOc2cc(-c3scnc3C)ccc2CNC(=O)[C@@H]2C[C@H](O)CN2C(=O)[C@@H](NC(=O)C2(F)CC2)C(C)(C)C)CC1` [cisVZ185], the BRD7 degradation entry on BRD7 (100 nM) is “no degradation”.
